One assay concerns vascular permeability. Kind of assay: Inhibitory effect on vascular permeability (acetic acid, Evans Blue, mice). Particulars: 100 mg/kg, p.o. The class given is in vivo, male ddY-strain mice. Here is the method:
Male ddY-strain mice were orally administered with the compound of examples in 5% arabic gum suspension. After 45 minutes, 1% Evans Blue dissolved in saline (0.1 ml/10 g body weight) was injected into tail vein, and immediately, 1% of acetic acid diluted in saline (0.1 ml/10 g body weight) was injected into peritoneal cavity. Thirty minutes later, each mouse was sacrificed and peritoneal cavity was washed with saline (2 ml/10 g body weight). Peritoneal exuded fluid was collected and centrifuged at 3,000 rpm for 10 minutes. The optical density of supernatant was read at 630 nm. The volume of Evans Blue was determined from the calibration curve and the inhibition ratio was calculated.

Another assay concerns adjuvant arthritis. In words: Therapeutic effect on the adjuvant arthritis in rats (swelling of non-injected hind paw). Type of assay: in vivo, female SD-strain rats. Particulars: oral. The procedure:
Heat-killed Mycobacterium butyricum (0.6 mg/rat) suspended in liquid paraffin was injected intradermally into right hind paw of female SD-strain rats. Test compounds suspended in 0.3% CMC solution were administered orally once a day for 7 days from 14 days to 20 days after the injection of adjuvant. The swelling of non-injected hind paw was measured by the water displacement method.

Assay [1] relates to IgM antibody-producing cells. Kind of assay: Effect on IgM antibody-producing cells in vitro (Jerne method). Type of assay: cell-based, BDF1-strain mice. Particulars: n 6; for IgM-PFC/culture (mean ± S.E.): reference 82 ± 15, *p < 0.01 (Dunnett's test). Here is the method:
The spleen cells of BDF1 -strain mice were isolated by finely mincing the spleen, centrifuged, and suspended in medium (RPMI-1640+10% FCS). Each 50 μl of spleen cell suspension (2×10^7 cells/ml) and sheep erythrocyte suspension (1×10^7 cells/ml) was spread on a 96-well plate. Test compounds were dissolved in DMSO and diluted in medium. Then, 100 μl of medium containing test compounds were added to the 96-well plate. After the plate was incubated at 37° C. for 5 days in 5% CO2 incubator, the number of IgM antibody-producing cells was counted by Jerne method.

In assay [2] the test system is IgM antibody-producing cells. Kind of assay: Effect on IgM antibody-producing cells in vivo (Jerne method). The arrangement: species or system BALB/c-strain mice. Particulars: 12.5 mg/kg/day, oral 4 days, n 7. Here is the method:
To a BALB/c-strain mice were intraperitoneally injected with 5×10^8 /0.1 ml of sheep erythrocytes. The test compound was administered orally once a day for 4 days since the erythrocyte injection. On the next day of final administration, the spleen cells were isolated by finely mincing the spleen, centrifuged and suspended in medium (RPMI-1640+10% FCS). The number of IgM antibody-producing cells was counted by Jerne method.

Where [3] appears, read: 25 mg/kg/day, 18 Days after adjuvant.
Setting [4] is: 25 mg/kg/day, 21 Days after adjuvant.
Setting [5] is: 25 mg/kg/day, 27 Days after adjuvant.
The mark [6] stands for this setting: 50 mg/kg/day, 18 Days after adjuvant.
The mark [7] stands for this setting: 50 mg/kg/day, 21 Days after adjuvant.
The mark [8] stands for this setting: 50 mg/kg/day, 27 Days after adjuvant.

SMILES strings stand for the structures. Counter-ions that a name gives are not always drawn.

On to `CSc1cc(CC(=O)O)cc2c1NC(C(F)(F)F)CC2` (stereo not drawn) [Example 29, 8-Methylthio-1,2,3,4-tetrahydro-2-trifluoromethylquinoline-6-acetic acid], for which the “Inhibition ratio (vascular permeability)” value in the assay on vascular permeability is reported as 18.4%.
As for `CC(=O)c1cc(CC(=O)O)cc2c1NC(C(F)(F)F)CC2` (stereo not drawn) [Example 28, 8-Acetyl-1,2,3,4-tetrahydro-2-trifluoromethylquinoline-6-acetic acid], the “Inhibition ratio (vascular permeability)” value in the assay with vascular permeability came to 16.7%.
Take `O=C(O)Cc1ccc2c(c1)CCC(C(F)(F)F)N2` (stereo not drawn) [Example 16, 1,2,3,4-Tetrahydro-2-trifluoromethylquinoline-6-acetic acid]: in the assay on vascular permeability, the “Inhibition ratio (vascular permeability)” value is given as 37.3%.
For `CN1c2ccc(CC(=O)O)cc2CCC1c1ccccc1` (stereo not drawn) [Example 11, 1-Methyl-2-phenyl-1,2,3,4-tetrahydroquinoline-6-acetic acid], the “Inhibition ratio (vascular permeability)” value with vascular permeability came to 42.7%.
For `O=C(O)Cc1cc(Cl)c2c(c1)CCC(C(F)(F)F)N2` (stereo not drawn) [Example 15, 8-Chloro-1,2,3,4-tetrahydro-2-trifluoromethylquinoline-6-acetic acid], the “Inhibition ratio (vascular permeability)” value in the assay with vascular permeability came to 29.1%. In addition, the “Inhibition ratio of swelling” value in the assay on adjuvant arthritis (12.5 mg/kg/day, 18 Days after adjuvant) is reported as 21%; in the assay with adjuvant arthritis (12.5 mg/kg/day, 21 Days after adjuvant), 36%; in the assay on adjuvant arthritis (12.5 mg/kg/day, 27 Days after adjuvant), 50%; with adjuvant arthritis (setting [3]), 39%; in the assay on adjuvant arthritis (setting [4]), 45%; in the assay on adjuvant arthritis (setting [5]), 52%. Also, the results for the “Inhibition ratio of swelling” value in the assay on adjuvant arthritis (setting [6]), in the assay on adjuvant arthritis (setting [7]) and with adjuvant arthritis (setting [8]) were 39%, 56% and 58%, respectively. The “IgM-PFC/culture (mean ± S.E.)” value in assay [1] (2 × 10^-6 M) came out at 24 ± 3 IgM-PFC/culture; in assay [1] (5 × 10^-5 M) it was 31 ± 9 IgM-PFC/culture. For the same compound, in assay [1] (Mus musculus, 120 h, 2 × 10^-6 M, read-out: Inhibition ratio (IgM-PFC in vitro)), the inhibition at 2 µM turned out to be 71%. Besides, in assay [1] (Mus musculus, 120 h, 5 × 10^-5 M, read-out: Inhibition ratio (IgM-PFC in vitro)), the inhibition at 50 µM worked out at 62%. The “Inhibition ratio (IgM-PFC in vivo)” value in assay [2] worked out at 35%. In assay [2] (reference 995 ± 55, *p < 0.05 (Dunnett's test)), the “IgM-PFC/spleen (× 10^2) (mean ± S.E.)” value is recorded as 651 ± 49 IgM-PFC/spleen (× 10^2).
With `CCOC(=O)Cc1cc(Cl)c2c(c1)CCC(c1ccccc1F)N2` (stereo not drawn) [Example 4, Ethyl 8-chloro-2-(2-fluorophenyl)-1,2,3,4-tetrahydroquinoline-6-acetate], the “Inhibition ratio (vascular permeability)” value with vascular permeability is listed as 33.1%.
Regarding `O=C(O)Cc1cc(Cl)c2c(c1)CCC(c1ccccc1F)N2` (stereo not drawn) [Example 7, 8-Chloro-2-(2-fluorophenyl)-1,2,3,4-tetrahydroquinoline-6-acetic acid], the “Inhibition ratio (vascular permeability)” value with vascular permeability turned out to be 51.1%. Further, the “Inhibition ratio of swelling” value in the assay on adjuvant arthritis (setting [3]) amounted to 6%; with adjuvant arthritis (setting [4]), 19%; in the assay with adjuvant arthritis (setting [5]), 33%; with adjuvant arthritis (setting [6]), 36%; with adjuvant arthritis (setting [7]) it was 52%; with adjuvant arthritis (setting [8]) it was 50%. Moreover, the “Inhibition ratio of swelling” value in the assay on adjuvant arthritis (100 mg/kg/day, 18 Days after adjuvant) is 59%; in the assay with adjuvant arthritis (100 mg/kg/day, 21 Days after adjuvant) it was 64%; with adjuvant arthritis (100 mg/kg/day, 27 Days after adjuvant), 64%.
Take `COc1ccc(C2CCc3cc(CC(=O)O)cc(Cl)c3N2)cc1` (stereo not drawn) [Example 9, 8-Chloro-2-(4-methoxyphenyl)-1,2,3,4-tetrahydroquinoline-6-acetic acid]: in the assay on vascular permeability, the “Inhibition ratio (vascular permeability)” value was 16.0%.
Regarding `O=C(O)Cc1cc2c(c([N+](=O)[O-])c1)NC(C(F)(F)F)CC2` (stereo not drawn) [Example 33, 8-Nitro-1,2,3,4-tetrahydro-2-trifluoromethylquinoline-6-acetic acid], the “Inhibition ratio (vascular permeability)” value with vascular permeability was 25.4%.
On the same count and under the same terms, the figure for `O=C(O)Cc1cc(Cl)c2c(c1)CCC(c1ccccc1)N2` (stereo not drawn) [Example 8, 8-Chloro-2-phenyl-1,2,3,4-tetrahydroquinoline-6-acetic acid] is 50.0%.
On to `CN1c2c(Cl)cc(CC(=O)O)cc2CCC1c1ccccc1` (stereo not drawn) [Example 12, 8-Chloro-1-methyl-2-phenyl-1,2,3,4-tetrahydroquinoline-6-acetic acid], for which, in the assay with vascular permeability, the “Inhibition ratio (vascular permeability)” value is 52.7%.
Same read-out and setting: the figure for `O=C(O)Cc1cc(Br)c2c(c1)CCC(C(F)(F)F)N2` (stereo not drawn) [Example 23, 8-Bromo-1,2,3,4-tetrahydro-2-trifluoromethylquinoline-6-acetic acid] is 38.6%.
The same measure, in the same setting: next, `O=C(O)Cc1cc2c(c(C(=O)c3ccccc3)c1)NC(C(F)(F)F)CC2` (stereo not drawn) [Example 32, Sodium salt of 8-benzoyl-1,2,3,4-tetrahydro-2-trifluoromethylquinoline-6-acetic acid]: 19.7%; `O=C(O)Cc1cc2c(c(-c3ccccc3)c1)NC(C(F)(F)F)CC2` (stereo not drawn) [Example 27, 8-Phenyl-1,2,3,4-tetrahydro-2-trifluoromethylquinoline-6-acetic acid]: 27.0%.
`N#Cc1cc(CC(=O)O)cc2c1NC(C(F)(F)F)CC2` (stereo not drawn) [Example 24, 8-Cyano-1,2,3,4-tetrahydro-2-trifluoromethylquinoline-6-acetic acid]: the “Inhibition ratio (vascular permeability)” value in the assay with vascular permeability is listed as 25.9%.
